Assay results as given in ChEMBL document CHEMBL4507318, “Data for DCP probe BAY-985” (2021).

Legend:
[1] = target: 5-hydroxytryptamine receptor 7 (Homo sapiens) (UniProt P34969); settings: Compound concentration 10.0 uM
[2] = tested on: Receptor-type tyrosine-protein kinase FLT3 (Homo sapiens), P36888 [R834Q]
[3] = target: Serine/threonine-protein kinase Nek10 (Homo sapiens) (UniProt Q6ZWH5)
[4] = target: Ephrin type-A receptor 6 (Homo sapiens) (UniProt Q9UF33)
[5] = target: Mitogen-activated protein kinase kinase kinase 4 (Homo sapiens) (UniProt Q9Y6R4)
[6] = target: Misshapen-like kinase 1 (Homo sapiens) (UniProt Q8N4C8)
[7] = target: Calcium/calmodulin-dependent protein kinase type 1B (Homo sapiens) (UniProt Q6P2M8)
[8] = target: Dual specificity testis-specific protein kinase 1 (Homo sapiens) (UniProt Q15569)
[9] = tested on: Epidermal growth factor receptor (Homo sapiens), P00533 [UNDEFINED MUTATION]
[10] = target: Dual specificity protein kinase TTK (Homo sapiens) (UniProt P33981)
[11] = target: Casein kinase I isoform epsilon (Homo sapiens) (UniProt P49674)
[12] = target: Mitogen-activated protein kinase kinase kinase kinase 4 (Homo sapiens) (UniProt O95819)
[13] = tested on: Tyrosine-protein kinase ABL1 (Homo sapiens), P00519 [T315I]
[14] = target: Activin receptor type-1-like (Homo sapiens) (UniProt P37023)
[15] = tested on: Mast/stem cell growth factor receptor Kit (Homo sapiens), P10721 [V559D,T670I]
[16] = target: Tyrosine-protein kinase TXK (Homo sapiens) (UniProt P42681)
[17] = target: Casein kinase I isoform alpha (Homo sapiens) (UniProt P48729)
[18] = target: Serine/threonine-protein kinase Nek4 (Homo sapiens) (UniProt P51957)
[19] = target: Mitogen-activated protein kinase kinase kinase 14 (Homo sapiens) (UniProt Q99558)
[20] = target: Serine/threonine-protein kinase PAK 1 (Homo sapiens) (UniProt Q13153)
[21] = target: Serine/threonine-protein kinase TAO3 (Homo sapiens) (UniProt Q9H2K8)
[22] = target: NT-3 growth factor receptor (Homo sapiens) (UniProt Q16288)
[23] = target: Ankyrin repeat and protein kinase domain-containing protein 1 (Homo sapiens) (UniProt Q8NFD2)
[24] = target: High affinity nerve growth factor receptor (Homo sapiens) (UniProt P04629)
[25] = tested on: ALK tyrosine kinase receptor (Homo sapiens), Q9UM73 [C1156Y]
[26] = target: Serine/threonine-protein kinase WNK2 (Homo sapiens) (UniProt Q9Y3S1)
[27] = tested on: Phosphatidylinositol 4,5-bisphosphate 3-kinase catalytic subunit alpha isoform (Homo sapiens), P42336 [C420R]
[28] = target: Serine/threonine-protein kinase 17A (Homo sapiens) (UniProt Q9UEE5)
[29] = target: MAP kinase-activated protein kinase 2 (Homo sapiens) (UniProt P49137)
[30] = target: RAC-alpha serine/threonine-protein kinase (Homo sapiens) (UniProt P31749)
[31] = target: Aurora kinase C (Homo sapiens) (UniProt Q9UQB9)
[32] = tested on: Mast/stem cell growth factor receptor Kit (Homo sapiens), P10721 [L576P]
[33] = target: 5-hydroxytryptamine receptor 3A (Homo sapiens) (UniProt P46098); settings: Compound concentration 10.0 uM
[34] = target: Cyclin-dependent kinase 11A (Homo sapiens) (UniProt Q9UQ88)
[35] = target: Dual specificity protein kinase CLK4 (Homo sapiens) (UniProt Q9HAZ1)
[36] = target: Ephrin type-B receptor 1 (Homo sapiens) (UniProt P54762)
[37] = target: Serine/threonine-protein kinase 32B (Homo sapiens) (UniProt Q9NY57)
[38] = target: cAMP-dependent protein kinase catalytic subunit PRKX (Homo sapiens) (UniProt P51817)
[39] = tested on: Receptor-type tyrosine-protein kinase FLT3 (Homo sapiens), P36888 [UNDEFINED MUTATION]
[40] = target: cGMP-dependent protein kinase 2 (Homo sapiens) (UniProt Q13237)
[41] = target: Uncharacterized serine/threonine-protein kinase SBK3 (Homo sapiens) (UniProt P0C264)
[42] = target: Mitogen-activated protein kinase 6 (Homo sapiens) (UniProt Q16659)
[43] = tested on: Tyrosine-protein kinase ABL1 (Homo sapiens), P00519 [F317L]
[44] = target: Ephrin type-B receptor 3 (Homo sapiens) (UniProt P54753)
[45] = target: Tyrosine-protein kinase Fer (Homo sapiens) (UniProt P16591)
[46] = Compound concentration 100.0 nM
[47] = Compound concentration 1000.0 nM

Chain of Serine/threonine-protein kinase TAO3 (Homo sapiens) (Q9H2K8 whole entry): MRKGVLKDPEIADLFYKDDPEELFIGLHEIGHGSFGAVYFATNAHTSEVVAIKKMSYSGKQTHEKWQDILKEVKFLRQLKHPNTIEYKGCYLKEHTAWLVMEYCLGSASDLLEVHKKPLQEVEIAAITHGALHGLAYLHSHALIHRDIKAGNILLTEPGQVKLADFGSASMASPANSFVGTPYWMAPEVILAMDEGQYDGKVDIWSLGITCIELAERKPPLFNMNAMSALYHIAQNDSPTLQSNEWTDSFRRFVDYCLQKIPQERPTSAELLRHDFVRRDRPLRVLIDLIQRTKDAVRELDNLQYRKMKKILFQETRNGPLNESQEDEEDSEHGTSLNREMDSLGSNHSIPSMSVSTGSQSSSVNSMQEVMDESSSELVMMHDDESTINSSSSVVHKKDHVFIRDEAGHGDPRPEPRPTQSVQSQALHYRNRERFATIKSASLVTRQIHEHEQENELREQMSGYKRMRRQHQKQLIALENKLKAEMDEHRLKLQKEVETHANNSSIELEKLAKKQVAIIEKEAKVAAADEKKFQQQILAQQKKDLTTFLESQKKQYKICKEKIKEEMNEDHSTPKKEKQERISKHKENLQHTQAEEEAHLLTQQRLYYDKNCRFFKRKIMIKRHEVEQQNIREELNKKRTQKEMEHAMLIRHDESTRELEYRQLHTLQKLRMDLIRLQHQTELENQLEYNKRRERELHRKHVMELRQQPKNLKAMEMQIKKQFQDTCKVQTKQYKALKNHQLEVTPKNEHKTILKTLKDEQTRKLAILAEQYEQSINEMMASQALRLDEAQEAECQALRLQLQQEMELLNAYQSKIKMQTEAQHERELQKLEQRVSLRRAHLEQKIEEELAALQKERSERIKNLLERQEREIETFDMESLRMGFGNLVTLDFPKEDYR
Chain of Dual specificity testis-specific protein kinase 1 (Homo sapiens) (Q15569 whole entry, looked up): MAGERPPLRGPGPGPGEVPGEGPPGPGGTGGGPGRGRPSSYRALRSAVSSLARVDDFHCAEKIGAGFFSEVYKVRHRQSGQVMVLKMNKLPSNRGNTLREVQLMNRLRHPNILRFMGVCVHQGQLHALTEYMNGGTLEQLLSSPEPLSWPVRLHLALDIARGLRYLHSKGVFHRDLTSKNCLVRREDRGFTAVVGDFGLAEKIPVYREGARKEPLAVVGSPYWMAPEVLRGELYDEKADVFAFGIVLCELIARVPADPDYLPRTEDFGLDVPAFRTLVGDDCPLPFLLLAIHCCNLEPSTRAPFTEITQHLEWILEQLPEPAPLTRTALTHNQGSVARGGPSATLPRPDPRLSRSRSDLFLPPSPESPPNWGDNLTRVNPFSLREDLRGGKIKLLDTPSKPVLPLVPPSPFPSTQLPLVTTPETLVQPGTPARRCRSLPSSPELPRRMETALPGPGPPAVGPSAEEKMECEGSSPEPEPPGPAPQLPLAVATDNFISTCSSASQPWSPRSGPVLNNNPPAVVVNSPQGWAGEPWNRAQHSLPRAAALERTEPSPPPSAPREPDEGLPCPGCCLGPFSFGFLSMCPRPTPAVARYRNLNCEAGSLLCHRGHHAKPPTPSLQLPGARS
Chain of Phosphatidylinositol 4,5-bisphosphate 3-kinase catalytic subunit alpha isoform (Homo sapiens), P42336 [C420R] (P42336 whole entry C420R, canonical isoform): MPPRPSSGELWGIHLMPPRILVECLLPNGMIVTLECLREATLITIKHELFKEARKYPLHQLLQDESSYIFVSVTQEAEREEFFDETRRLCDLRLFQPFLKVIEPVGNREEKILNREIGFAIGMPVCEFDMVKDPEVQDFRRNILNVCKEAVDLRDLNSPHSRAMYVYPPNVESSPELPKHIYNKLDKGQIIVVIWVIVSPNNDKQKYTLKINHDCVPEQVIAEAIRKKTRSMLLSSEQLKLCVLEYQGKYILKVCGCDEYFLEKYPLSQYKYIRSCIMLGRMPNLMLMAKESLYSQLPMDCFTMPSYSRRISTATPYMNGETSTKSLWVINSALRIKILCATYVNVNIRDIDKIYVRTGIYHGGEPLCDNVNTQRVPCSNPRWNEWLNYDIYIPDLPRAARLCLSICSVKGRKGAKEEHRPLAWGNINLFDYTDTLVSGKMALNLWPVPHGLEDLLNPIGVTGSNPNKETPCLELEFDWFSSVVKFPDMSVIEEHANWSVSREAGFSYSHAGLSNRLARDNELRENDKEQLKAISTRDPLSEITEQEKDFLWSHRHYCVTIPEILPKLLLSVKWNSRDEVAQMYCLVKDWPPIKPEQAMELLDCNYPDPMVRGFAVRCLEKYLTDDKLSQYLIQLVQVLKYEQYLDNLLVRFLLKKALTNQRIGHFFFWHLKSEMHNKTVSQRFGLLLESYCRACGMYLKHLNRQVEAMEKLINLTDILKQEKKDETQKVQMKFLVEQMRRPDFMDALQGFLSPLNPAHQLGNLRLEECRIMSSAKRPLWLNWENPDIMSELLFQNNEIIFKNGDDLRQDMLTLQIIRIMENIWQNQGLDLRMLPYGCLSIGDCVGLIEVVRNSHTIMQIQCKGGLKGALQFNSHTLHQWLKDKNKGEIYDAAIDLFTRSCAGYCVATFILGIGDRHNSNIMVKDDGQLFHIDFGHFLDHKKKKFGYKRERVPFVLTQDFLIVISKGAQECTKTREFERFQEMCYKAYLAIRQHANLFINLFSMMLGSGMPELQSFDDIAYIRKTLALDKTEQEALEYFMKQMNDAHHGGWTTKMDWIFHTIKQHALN
Chain of Mitogen-activated protein kinase 6 (Homo sapiens) (Q16659 whole entry): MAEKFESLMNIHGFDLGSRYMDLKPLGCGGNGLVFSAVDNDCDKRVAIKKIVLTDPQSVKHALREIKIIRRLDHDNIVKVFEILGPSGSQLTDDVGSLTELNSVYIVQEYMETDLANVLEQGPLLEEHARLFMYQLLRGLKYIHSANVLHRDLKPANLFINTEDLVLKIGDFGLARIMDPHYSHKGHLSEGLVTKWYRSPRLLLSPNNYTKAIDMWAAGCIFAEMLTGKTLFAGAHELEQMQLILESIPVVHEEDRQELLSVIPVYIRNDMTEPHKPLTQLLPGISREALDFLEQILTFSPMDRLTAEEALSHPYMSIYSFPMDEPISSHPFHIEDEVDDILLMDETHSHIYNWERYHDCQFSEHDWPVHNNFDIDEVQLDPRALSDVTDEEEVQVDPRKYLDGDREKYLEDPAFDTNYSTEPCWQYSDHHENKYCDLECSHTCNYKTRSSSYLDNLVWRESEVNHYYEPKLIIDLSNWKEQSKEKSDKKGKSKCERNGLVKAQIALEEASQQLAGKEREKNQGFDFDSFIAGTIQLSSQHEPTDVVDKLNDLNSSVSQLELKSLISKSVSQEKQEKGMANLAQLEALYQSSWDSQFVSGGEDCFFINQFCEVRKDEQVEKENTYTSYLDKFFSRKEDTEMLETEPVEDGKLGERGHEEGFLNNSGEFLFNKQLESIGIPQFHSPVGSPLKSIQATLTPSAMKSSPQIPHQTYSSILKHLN
Chain of Ephrin type-A receptor 6 (Homo sapiens) (Q9UF33 whole entry): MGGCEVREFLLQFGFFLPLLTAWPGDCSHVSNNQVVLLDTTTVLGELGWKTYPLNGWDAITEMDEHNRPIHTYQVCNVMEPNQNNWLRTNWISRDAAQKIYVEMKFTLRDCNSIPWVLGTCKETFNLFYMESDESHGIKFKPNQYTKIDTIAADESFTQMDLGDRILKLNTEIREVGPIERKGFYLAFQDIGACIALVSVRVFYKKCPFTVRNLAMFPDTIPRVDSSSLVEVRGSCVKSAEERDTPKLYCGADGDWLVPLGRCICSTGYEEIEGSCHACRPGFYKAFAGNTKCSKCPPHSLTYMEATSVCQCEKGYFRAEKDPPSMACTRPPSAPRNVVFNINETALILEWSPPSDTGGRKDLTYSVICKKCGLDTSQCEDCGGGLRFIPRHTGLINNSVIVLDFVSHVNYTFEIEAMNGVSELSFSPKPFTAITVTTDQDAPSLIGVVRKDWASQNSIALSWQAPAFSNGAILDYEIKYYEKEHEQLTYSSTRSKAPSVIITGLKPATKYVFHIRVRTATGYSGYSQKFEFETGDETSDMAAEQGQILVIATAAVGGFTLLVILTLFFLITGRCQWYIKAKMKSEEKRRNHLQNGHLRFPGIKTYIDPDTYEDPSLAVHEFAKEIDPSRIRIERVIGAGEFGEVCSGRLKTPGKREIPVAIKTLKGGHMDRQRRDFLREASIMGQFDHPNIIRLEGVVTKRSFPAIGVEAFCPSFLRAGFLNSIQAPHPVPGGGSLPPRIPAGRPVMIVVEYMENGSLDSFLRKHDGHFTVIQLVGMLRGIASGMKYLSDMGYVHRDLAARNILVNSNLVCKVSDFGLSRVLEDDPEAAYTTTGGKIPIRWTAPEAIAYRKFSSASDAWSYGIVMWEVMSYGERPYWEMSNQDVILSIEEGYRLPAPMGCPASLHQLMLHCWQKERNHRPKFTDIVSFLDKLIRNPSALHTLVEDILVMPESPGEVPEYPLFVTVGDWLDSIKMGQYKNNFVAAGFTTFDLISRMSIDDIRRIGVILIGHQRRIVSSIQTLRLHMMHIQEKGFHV
Chain of Uncharacterized serine/threonine-protein kinase SBK3 (Homo sapiens) (P0C264 whole entry): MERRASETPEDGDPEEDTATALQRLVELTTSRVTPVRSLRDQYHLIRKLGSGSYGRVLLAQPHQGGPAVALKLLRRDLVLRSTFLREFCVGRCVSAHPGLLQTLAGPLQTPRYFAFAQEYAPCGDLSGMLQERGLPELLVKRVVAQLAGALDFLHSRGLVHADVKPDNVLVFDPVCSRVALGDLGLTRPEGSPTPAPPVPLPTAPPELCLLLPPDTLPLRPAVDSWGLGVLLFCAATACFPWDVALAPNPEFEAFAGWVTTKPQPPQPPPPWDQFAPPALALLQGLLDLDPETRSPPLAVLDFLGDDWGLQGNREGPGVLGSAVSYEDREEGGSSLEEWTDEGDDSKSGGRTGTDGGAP
Chain of cAMP-dependent protein kinase catalytic subunit PRKX (Homo sapiens) (P51817 whole entry): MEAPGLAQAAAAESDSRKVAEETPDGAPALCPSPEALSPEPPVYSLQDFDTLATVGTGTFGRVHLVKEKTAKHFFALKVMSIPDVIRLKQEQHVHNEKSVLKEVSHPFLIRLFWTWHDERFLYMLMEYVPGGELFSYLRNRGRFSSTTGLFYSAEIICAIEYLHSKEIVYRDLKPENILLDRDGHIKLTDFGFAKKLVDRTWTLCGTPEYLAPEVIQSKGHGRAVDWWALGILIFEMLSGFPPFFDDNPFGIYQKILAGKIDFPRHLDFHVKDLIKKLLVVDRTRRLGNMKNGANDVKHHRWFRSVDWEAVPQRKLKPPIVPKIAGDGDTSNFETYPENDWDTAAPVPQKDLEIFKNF

C[C@H](c1ccnc(Nc2nc3ccc(-c4cc(N(C)C)ncn4)cc3[nH]2)c1)N1CCN(C(=O)CC(F)(F)F)CC1 [BAY-985]
inhibition [1]: 16.6%
residual activity [2, 46]: 100%
residual activity [3, 46]: 100%
residual activity [4, 46]: 93%
residual activity [5, 46]: 96%
residual activity [6, 46]: 94%
residual activity [7, 46]: 100%
residual activity [8, 46]: 98%
residual activity [9, 46]: 96%
residual activity [10, 46]: 82%
residual activity [11, 46]: 100%
residual activity [12, 46]: 91%
residual activity [13, 46]: 89%
residual activity [14, 46]: 100%
residual activity [15, 46]: 99%
residual activity [16, 46]: 96%
residual activity [17, 46]: 100%
residual activity [18, 46]: 100%
residual activity [19, 46]: 100%
residual activity [20, 46]: 77%
residual activity [21, 46]: 41%
residual activity [22, 46]: 100%
residual activity [23, 46]: 99%
residual activity [24, 46]: 79%
residual activity [25, 46]: 100%
residual activity [26, 46]: 92%
residual activity [27, 46]: 100%
residual activity [28, 46]: 40%
residual activity [29, 46]: 100%
residual activity [30, 46]: 100%
residual activity [31, 46]: 100%
residual activity [32, 46]: 91%
inhibition [33]: 31.9%
residual activity [34, 46]: 84%
residual activity [35, 46]: 82%
residual activity [36, 46]: 98%
residual activity [37, 46]: 100%
residual activity [38, 46]: 99%
residual activity [39, 46]: 42%
residual activity [40, 46]: 94%
residual activity [41, 46]: 100%
residual activity [42, 46]: 86%
residual activity [43, 46]: 100%
residual activity [44, 46]: 93%
residual activity [45, 46]: 100%

CN(C)c1ncnc(-c2ccc3nc(Nc4cc(CN5CCN(C(=O)CC(F)(F)F)CC5)ccn4)[nH]c3c2)c1Cl [BAY-440]
inhibition [1]: 13.4%
residual activity [2, 47]: 77%
residual activity [3, 47]: 72%
residual activity [4, 47]: 100%
residual activity [5, 47]: 100%
residual activity [6, 47]: 57%
residual activity [7, 47]: 72%
residual activity [8, 47]: 78%
residual activity [9, 47]: 100%
residual activity [10, 47]: 100%
residual activity [11, 47]: 100%
residual activity [12, 47]: 100%
residual activity [13, 47]: 51%
residual activity [14, 47]: 94%
residual activity [15, 47]: 100%
residual activity [16, 47]: 95%
residual activity [17, 47]: 89%
residual activity [18, 47]: 84%
residual activity [19, 47]: 62%
residual activity [20, 47]: 100%
residual activity [21, 47]: 33%
residual activity [22, 47]: 61%
residual activity [23, 47]: 57%
residual activity [24, 47]: 38%
residual activity [25, 47]: 59%
residual activity [26, 47]: 59%
residual activity [27, 47]: 88%
residual activity [28, 47]: 34%
residual activity [29, 47]: 100%
residual activity [30, 47]: 100%
residual activity [31, 47]: 100%
residual activity [32, 47]: 87%
inhibition [33]: 35.6%
residual activity [34, 47]: 100%
residual activity [35, 47]: 99%
residual activity [36, 47]: 97%
residual activity [37, 47]: 100%
residual activity [38, 47]: 100%
residual activity [39, 47]: 35%
residual activity [40, 47]: 40%
residual activity [41, 47]: 100%
residual activity [42, 47]: 100%
residual activity [43, 47]: 57%
residual activity [44, 47]: 100%
residual activity [45, 47]: 100%
